# In ChEMBL document CHEMBL3639113, “TRPA1 antagonists” (2015):
# Biological target: Transient receptor potential cation channel subfamily A member 1 (Homo sapiens, UniProt O75762)
# Experiment: FLIPR Calcium Assay: Ca2+ influx was measured using a FLIPR calcium assay kit (R8033; Molecular Devices, Sunnyvale, Calif.). The Ca2+ indicator dye was dissolved in Hanks' balanced salt solution supplemented with 20 mM HEPES buffer (HBSS/HEPES) according to the manufacturer instructions. Prior to start of the assay, the medium was removed by aspiration, and cells were loaded with 100 μL Ca2+ dye for 2 to 3 hours at room temperature. […] (4×) solutions of the test compounds were prepared in HBSS/HEPES, and 50 μL were added to the cells at a delivery rate of 10 μL/sec. Changes in fluorescence were measured over time in a fluorometric imaging plate reader (FLIPR, Molecular Devices). Two additions were made over the course of an experimental run. For agonist experiments, assay buffer was added at the 10 s time point, followed by addition of agonist at the 3 minute 10 sec time point.
# Transient receptor potential cation channel subfamily A member 1, sequence (O75762 whole entry): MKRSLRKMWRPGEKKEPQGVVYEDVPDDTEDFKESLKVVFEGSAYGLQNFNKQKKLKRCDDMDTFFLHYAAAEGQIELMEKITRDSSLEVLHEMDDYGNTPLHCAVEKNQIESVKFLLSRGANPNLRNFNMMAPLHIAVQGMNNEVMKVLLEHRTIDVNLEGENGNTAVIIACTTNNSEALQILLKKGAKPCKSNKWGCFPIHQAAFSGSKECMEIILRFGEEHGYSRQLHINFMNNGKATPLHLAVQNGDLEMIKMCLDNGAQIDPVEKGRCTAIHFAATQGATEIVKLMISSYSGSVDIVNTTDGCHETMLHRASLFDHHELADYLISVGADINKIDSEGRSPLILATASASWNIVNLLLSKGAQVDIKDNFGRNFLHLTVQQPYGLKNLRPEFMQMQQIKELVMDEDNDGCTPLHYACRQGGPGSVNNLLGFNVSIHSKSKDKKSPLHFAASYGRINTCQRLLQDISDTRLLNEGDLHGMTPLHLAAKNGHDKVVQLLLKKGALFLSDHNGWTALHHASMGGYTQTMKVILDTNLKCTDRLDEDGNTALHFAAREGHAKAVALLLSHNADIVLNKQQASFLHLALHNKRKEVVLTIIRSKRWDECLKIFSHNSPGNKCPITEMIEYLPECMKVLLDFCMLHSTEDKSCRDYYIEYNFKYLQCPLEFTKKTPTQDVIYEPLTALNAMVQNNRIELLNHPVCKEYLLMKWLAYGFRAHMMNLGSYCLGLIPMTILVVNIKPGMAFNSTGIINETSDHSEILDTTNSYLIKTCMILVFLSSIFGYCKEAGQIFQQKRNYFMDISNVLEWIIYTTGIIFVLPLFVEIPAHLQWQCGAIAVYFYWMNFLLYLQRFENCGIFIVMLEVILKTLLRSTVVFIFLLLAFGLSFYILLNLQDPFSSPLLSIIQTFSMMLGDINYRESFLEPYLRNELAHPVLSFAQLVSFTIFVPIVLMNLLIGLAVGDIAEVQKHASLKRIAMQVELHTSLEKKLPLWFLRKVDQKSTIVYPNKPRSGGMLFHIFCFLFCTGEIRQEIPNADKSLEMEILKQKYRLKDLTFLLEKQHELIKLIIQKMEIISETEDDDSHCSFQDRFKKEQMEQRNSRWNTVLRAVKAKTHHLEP
row,IC50,Structure (SMILES)
1,8.3 µM,CCC(=N\OC)/C(C)=C/c1ccc(F)cc1
2,> 100 µM,CCC(=N\O)/C(C)=C/c1ccc(F)c(C#N)c1
